Columns and labels:
[1] = molecular target: T1, PFKFB3 (Homo sapiens, UniProt Q16875); experiment: Isothermal titration calorimetry; format: binding; details: 25 °C
Experimental: ITC was performed for the titration of 200 μM KAN0438241 into 20 μM PFKFB3 protein. Raw ITC data was recorded for 12 × 3 μl injections (preceded by 0.4 μl injection). Data was collected with PEAQ-ITC system (MicroCal™, Malvern Instruments) at 25 °C, 10 μcal/s Reference Power, High Feedback, and 750 rpm stirring rate. A constant value of the heat of dilution was fitted along with the binding parameters. Data analysis performed with dedicated PEAQ-ITC analysis software (MicroCal, Malvern Instruments).

[2] = molecular target: T2, AKT1 (Homo sapiens, UniProt P31749); experiment: KINOMEscan; format: binding; details: 2000 nM; read-out: Percent Control
T2 construct: purchased DiscoverX (Eurofins) KINOMEscan / scanEDGE, inferred from the naming style

[3] = molecular target: T3, AURKA (Homo sapiens, UniProt O14965); experiment: KINOMEscan; format: binding; details: 2000 nM; read-out: Percent Control
T3 construct: purchased DiscoverX (Eurofins) KINOMEscan / scanEDGE, inferred from the naming style

[4] = molecular target: T4, AURKB (Homo sapiens, UniProt Q96GD4); experiment: KINOMEscan; format: binding; details: 2000 nM; read-out: Percent Control
T4 construct: purchased DiscoverX (Eurofins) KINOMEscan / scanEDGE, inferred from the naming style

[5] = molecular target: T5, BMPR2 (Homo sapiens, UniProt Q13873); experiment: KINOMEscan; format: binding; details: 2000 nM; read-out: Percent Control
T5 construct: purchased DiscoverX (Eurofins) KINOMEscan / scanEDGE, inferred from the naming style

[6] = molecular target: T6, BRAF (Homo sapiens, UniProt P15056); experiment: KINOMEscan; format: binding; details: 2000 nM; read-out: Percent Control
T6 construct: purchased DiscoverX (Eurofins) KINOMEscan / scanEDGE, inferred from the naming style

[7] = molecular target: T7, BRAF(V600E) (Homo sapiens, UniProt P15056, V600E); experiment: KINOMEscan; format: binding; details: 2000 nM; read-out: Percent Control
T7 construct: purchased DiscoverX (Eurofins) KINOMEscan / scanEDGE, inferred from the naming style

[8] = molecular target: T8, BTK (Homo sapiens, UniProt Q06187); experiment: KINOMEscan; format: binding; details: 2000 nM; read-out: Percent Control
T8 construct: purchased DiscoverX (Eurofins) KINOMEscan / scanEDGE, inferred from the naming style

[9] = molecular target: T9, CDK11 (Homo sapiens, UniProt Q9BWU1); experiment: KINOMEscan; format: binding; details: 2000 nM; read-out: Percent Control
T9 construct: purchased DiscoverX (Eurofins) KINOMEscan / scanEDGE, inferred from the naming style

[10] = molecular target: T10, CDK3 (Homo sapiens, UniProt Q00526); experiment: KINOMEscan; format: binding; details: 2000 nM; read-out: Percent Control
T10 construct: purchased DiscoverX (Eurofins) KINOMEscan / scanEDGE, inferred from the naming style

[11] = molecular target: T11, CSF1R (Homo sapiens, UniProt P07333); experiment: KINOMEscan; format: binding; details: 2000 nM; read-out: Percent Control
T11 construct: purchased DiscoverX (Eurofins) KINOMEscan / scanEDGE, inferred from the naming style

[12] = molecular target: T12, CSNK1D (Homo sapiens, UniProt P48730); experiment: KINOMEscan; format: binding; details: 2000 nM; read-out: Percent Control
T12 construct: purchased DiscoverX (Eurofins) KINOMEscan / scanEDGE, inferred from the naming style

[13] = molecular target: T13, DYRK1B (Homo sapiens, UniProt Q9Y463); experiment: KINOMEscan; format: binding; details: 2000 nM; read-out: Percent Control
T13 construct: purchased DiscoverX (Eurofins) KINOMEscan / scanEDGE, inferred from the naming style

[14] = molecular target: T14, ERBB2 (Homo sapiens, UniProt P04626); experiment: KINOMEscan; format: binding; details: 2000 nM; read-out: Percent Control
T14 construct: purchased DiscoverX (Eurofins) KINOMEscan / scanEDGE, inferred from the naming style

[15] = molecular target: T15, ERBB4 (Homo sapiens, UniProt Q15303); experiment: KINOMEscan; format: binding; details: 2000 nM; read-out: Percent Control
T15 construct: purchased DiscoverX (Eurofins) KINOMEscan / scanEDGE, inferred from the naming style

[16] = molecular target: T16, FGFR3 (Homo sapiens, UniProt P22607); experiment: KINOMEscan; format: binding; details: 2000 nM; read-out: Percent Control
T16 construct: purchased DiscoverX (Eurofins) KINOMEscan / scanEDGE, inferred from the naming style

[17] = molecular target: T1, PFKFB3; experiment: Cellular thermal shift assay (CETSA) in U2OS cells; format: cell-based; details: 10 µM
Experimental: U2OS cells in exponential growth rate were treated with indicated inhibitors at a concentration of 10 μM or DMSO for 6, 24, or 72 h and then harvested using trypsin, upon detachment trypsinization was inhibited by addition of cell media and cells spun down at 200 × g for 10 min at 4 °C. The pellet was resuspended in TBS (50 mM Tris–HCl (pH 7.5) and 150 mM NaCl) supplemented with protease inhibitors (Roche), cells were lysed by a freeze–thaw circle three times at −80 °C for 3 min and then 37 °C for 3 min. Debris was removed by centrifugation at 16,000 × g for 20 min at 4 °C, cell lysates were aliquoted and heated to indicated temperatures for 3 min. Insoluble proteins were then removed by centrifugation at 16,000 × g at 4 °C for 20 min, supernatant was transferred to new tubes and protein concentration was determined using BCA assay (Pierce). Western blot was performed according to standard procedures.

[18] = test system: U2OS cells; experiment: IR-induced RAD51 / RPA32 foci, confocal; format: cell-based; details: in combination with IR
Experimental: Cells were grown on sterilized coverslips and fixed with 4% paraformaldehyde (PFA) (Santa Cruz) and 2% sucrose (Sigma Aldrich) for 15 min at room temperature. They were then permeabilized with 0.2% NP-40 (Thermo Scientific) for 10 min at room temperature followed by 30 min of blocking in blocking buffer (2 or 3% BSA, 5% glycerol, 0.1% Tween 20 (Sigma Aldrich)). Coverslips were subsequently incubated for 1, 2, or 24 h in primary antibody and 40 min in secondary antibody diluted in blocking buffer, DNA was stained with DAPI for 10 min. The coverslips were mounted with Prolonged Gold mounting medium (Invitrogen). Images were acquired with a Zeiss LSM 780 microscope using a 40× or 63× oil immersion lens and processed in ImageJ and CellProfiler.
To visualize PFKFB3, RPA32, RAD51, BRCA1, 53BP1, and RRM2 IRIF, the cells were first washed with PBS and then incubated for 5 min at room temperature with cytoskeleton (CSK) buffer containing 10 mM PIPES pH 7.0 (Sigma Aldrich), 100 mM NaCl (EMD Millipore), 300 mM sucrose (Sigma Aldrich), 3 mM MgCl2 (Sigma Aldrich), and 0.7% Triton X-100 (Sigma Aldrich). After these treatments, the cells were washed once again with PBS and then fixed in 4% PFA with 2% sucrose.

[19] = test system: U2OS cells; experiment: Clonogenic survival, U2OS; format: cell-based; details: U2OS pre-treated prior to IR, colonies 10 days post treatments
Experimental: U2OS cells were transfected with indicated siRNAs and 24 h later exposed to IR (2 Gy) or left untreated and allowed to recover for 4 h. One-hundred U2OS cells were then seeded into 6-well plates and after 10 days colonies were fixed and stained with 4% methylene blue (Sigma Aldrich) in methanol. BJ TERT (500 cells), BJ RAS (200 cells), or U2OS (200 cells) were seeded into 6-well plates 24 h prior to treatment with inhibitors as indicated or vehicle for 24 h and then subjected to IR (2 Gy). The inhibitors were washed out 72 h later and colonies were fixed 4 days (BJ RAS) or 7 days (BJ TERT) later with 4% methylene blue in methanol.

[20] = test system: U2OS cells; experiment: Cell cycle analysis (propidium iodide, flow cytometry); format: cell-based; details: 24 h post-IR
Experimental: For cell cycle analysis, cells were treated or transfected with siRNA as described and harvested at the indicated time points with trypsin. For studies using IR, cells were exposed to IR with 2 Gy, and harvested at the indicated time points with trypsin. The cells were washed in PBS and fixed with 70% ethanol in PBS at 4 °C for 1 h and then stored at −20 °C until staining. Ethanol was removed by centrifugation and cells were then washed in PBS before staining DNA with propidium iodide (PI) solution containing 40 μg/mL PI, 100 μg/mL RNase A, and 0.1% Triton X-100 (Sigma Aldrich). Cells were analyzed by flow cytometry on a FACS Navios (Beckman Coulter) using Kaluza software.

T1 sequence (Q16875 whole entry): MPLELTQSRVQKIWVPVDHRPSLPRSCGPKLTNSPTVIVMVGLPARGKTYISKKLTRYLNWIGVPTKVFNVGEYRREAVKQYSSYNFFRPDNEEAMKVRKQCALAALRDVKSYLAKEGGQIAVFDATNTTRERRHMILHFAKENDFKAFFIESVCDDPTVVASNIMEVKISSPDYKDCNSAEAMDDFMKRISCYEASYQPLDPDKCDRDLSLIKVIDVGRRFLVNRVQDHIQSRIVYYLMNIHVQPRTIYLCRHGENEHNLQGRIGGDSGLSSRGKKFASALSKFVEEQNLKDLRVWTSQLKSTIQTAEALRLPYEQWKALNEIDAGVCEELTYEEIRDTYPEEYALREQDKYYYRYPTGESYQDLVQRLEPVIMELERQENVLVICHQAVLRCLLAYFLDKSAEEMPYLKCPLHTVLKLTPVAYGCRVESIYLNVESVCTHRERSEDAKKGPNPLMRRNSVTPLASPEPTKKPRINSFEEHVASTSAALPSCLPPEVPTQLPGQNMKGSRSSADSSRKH
T14 sequence (P04626 23-1255): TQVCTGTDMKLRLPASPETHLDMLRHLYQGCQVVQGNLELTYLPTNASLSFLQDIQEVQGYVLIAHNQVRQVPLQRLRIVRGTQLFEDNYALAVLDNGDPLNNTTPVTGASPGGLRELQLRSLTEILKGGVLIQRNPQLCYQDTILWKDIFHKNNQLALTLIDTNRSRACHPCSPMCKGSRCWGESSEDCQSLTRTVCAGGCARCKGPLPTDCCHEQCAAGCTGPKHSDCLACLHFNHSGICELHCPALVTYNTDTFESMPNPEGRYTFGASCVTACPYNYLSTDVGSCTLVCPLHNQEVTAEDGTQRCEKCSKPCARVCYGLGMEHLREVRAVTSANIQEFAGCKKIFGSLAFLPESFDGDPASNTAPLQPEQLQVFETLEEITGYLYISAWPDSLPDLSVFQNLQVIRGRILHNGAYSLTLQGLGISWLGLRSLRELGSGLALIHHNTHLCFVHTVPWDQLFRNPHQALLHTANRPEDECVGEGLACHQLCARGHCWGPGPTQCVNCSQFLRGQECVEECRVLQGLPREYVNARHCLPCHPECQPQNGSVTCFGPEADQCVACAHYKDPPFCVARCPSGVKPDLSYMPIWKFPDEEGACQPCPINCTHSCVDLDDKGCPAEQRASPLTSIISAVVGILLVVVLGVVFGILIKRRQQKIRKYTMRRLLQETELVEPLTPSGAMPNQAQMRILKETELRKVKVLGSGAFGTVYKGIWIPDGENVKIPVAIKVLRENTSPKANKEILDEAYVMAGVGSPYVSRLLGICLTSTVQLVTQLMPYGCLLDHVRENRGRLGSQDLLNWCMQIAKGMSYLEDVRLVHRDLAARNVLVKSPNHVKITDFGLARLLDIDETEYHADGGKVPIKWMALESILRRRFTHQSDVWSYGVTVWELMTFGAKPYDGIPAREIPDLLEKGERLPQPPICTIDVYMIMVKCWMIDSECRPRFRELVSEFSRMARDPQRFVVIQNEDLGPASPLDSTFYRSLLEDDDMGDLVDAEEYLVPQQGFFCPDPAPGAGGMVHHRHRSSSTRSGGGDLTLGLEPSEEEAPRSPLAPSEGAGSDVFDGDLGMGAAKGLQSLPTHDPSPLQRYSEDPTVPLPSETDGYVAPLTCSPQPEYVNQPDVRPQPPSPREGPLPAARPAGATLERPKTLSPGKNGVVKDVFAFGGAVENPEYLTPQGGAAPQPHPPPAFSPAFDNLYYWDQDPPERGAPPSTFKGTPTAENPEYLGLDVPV
T2 sequence (P31749 whole entry): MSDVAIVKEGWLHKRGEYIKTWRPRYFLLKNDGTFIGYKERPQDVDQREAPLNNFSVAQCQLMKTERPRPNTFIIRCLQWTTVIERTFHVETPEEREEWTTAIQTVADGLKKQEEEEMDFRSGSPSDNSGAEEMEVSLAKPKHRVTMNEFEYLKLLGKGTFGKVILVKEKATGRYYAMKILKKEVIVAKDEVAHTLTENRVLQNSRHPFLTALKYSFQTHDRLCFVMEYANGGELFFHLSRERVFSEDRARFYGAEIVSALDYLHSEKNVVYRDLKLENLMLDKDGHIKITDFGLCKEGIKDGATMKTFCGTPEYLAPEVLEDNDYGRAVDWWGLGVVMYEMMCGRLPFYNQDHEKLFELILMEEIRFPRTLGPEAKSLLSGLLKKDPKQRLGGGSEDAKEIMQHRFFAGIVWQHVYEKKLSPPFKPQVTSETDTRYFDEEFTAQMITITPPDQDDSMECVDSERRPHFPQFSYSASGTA
T16 sequence (P22607 23-806): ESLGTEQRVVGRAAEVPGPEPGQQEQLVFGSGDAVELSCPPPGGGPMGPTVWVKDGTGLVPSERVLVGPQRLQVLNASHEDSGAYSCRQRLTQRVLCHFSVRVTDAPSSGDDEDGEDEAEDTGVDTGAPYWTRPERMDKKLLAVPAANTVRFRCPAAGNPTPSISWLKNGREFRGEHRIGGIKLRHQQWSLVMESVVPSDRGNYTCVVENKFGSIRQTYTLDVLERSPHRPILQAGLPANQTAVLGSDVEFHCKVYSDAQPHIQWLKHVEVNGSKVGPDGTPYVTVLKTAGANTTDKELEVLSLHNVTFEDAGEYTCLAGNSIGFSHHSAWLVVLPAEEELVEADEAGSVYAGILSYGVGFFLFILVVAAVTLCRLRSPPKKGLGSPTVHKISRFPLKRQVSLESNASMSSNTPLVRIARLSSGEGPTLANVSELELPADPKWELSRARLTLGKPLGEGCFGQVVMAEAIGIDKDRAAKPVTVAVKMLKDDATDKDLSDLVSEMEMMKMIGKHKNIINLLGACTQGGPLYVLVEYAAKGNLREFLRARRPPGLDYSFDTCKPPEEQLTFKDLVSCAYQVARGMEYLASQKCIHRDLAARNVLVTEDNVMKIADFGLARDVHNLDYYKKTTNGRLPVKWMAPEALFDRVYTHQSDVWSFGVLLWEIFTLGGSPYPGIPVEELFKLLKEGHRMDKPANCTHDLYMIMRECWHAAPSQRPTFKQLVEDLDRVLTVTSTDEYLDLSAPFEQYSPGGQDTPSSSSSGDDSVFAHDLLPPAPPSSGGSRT
T8 sequence (Q06187 whole entry): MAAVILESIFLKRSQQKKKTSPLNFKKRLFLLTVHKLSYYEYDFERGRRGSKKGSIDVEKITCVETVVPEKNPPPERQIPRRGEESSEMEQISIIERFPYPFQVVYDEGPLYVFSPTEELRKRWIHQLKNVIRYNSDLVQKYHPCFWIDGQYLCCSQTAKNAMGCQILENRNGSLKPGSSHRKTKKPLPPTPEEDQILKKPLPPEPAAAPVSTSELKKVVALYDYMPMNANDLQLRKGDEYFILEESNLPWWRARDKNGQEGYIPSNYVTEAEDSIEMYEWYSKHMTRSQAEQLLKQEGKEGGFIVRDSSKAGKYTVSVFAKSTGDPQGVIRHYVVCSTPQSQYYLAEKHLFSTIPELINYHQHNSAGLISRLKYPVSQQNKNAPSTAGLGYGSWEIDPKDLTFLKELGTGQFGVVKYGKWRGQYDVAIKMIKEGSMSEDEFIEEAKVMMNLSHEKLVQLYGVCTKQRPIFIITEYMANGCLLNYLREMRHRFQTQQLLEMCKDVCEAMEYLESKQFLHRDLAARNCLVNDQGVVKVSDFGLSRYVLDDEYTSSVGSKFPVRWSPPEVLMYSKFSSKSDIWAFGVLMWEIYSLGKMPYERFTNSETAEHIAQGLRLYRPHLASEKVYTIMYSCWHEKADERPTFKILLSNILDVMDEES
T6 sequence (P15056 whole entry): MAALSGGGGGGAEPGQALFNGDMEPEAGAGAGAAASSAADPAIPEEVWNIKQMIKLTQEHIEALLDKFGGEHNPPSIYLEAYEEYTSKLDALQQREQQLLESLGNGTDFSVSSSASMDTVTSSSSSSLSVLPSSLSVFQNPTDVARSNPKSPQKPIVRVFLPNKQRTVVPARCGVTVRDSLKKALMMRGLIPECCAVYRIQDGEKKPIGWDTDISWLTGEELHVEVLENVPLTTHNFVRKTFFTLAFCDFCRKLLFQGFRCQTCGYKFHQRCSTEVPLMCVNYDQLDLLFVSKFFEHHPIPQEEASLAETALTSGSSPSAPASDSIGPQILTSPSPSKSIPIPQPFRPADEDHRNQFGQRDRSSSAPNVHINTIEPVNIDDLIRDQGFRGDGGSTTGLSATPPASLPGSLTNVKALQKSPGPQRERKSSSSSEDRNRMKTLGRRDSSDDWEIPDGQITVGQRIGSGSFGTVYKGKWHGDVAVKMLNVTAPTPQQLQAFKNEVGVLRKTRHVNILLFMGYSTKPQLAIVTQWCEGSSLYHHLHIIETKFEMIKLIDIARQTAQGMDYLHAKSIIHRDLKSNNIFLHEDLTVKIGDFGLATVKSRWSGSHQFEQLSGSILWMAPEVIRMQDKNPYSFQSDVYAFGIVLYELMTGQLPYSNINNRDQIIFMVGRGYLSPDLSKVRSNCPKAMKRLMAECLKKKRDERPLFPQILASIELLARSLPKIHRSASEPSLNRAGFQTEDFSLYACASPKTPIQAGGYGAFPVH
T13 sequence (Q9Y463 whole entry): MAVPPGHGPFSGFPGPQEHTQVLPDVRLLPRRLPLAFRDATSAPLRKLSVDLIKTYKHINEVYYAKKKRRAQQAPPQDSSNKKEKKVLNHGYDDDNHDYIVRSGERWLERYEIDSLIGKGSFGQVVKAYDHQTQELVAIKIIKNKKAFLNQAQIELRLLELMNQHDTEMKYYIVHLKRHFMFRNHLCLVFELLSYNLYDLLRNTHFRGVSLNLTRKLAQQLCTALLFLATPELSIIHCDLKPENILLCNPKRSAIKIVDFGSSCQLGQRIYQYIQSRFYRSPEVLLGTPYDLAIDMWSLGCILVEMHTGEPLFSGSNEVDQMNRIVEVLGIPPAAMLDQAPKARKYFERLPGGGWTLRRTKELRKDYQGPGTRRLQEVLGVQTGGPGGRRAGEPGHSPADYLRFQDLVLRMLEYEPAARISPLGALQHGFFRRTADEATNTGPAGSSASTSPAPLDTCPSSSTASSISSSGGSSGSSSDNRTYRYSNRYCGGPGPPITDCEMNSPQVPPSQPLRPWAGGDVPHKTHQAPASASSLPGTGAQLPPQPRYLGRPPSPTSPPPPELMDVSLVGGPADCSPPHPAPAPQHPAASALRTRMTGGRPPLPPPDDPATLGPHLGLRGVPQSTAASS

O=C(O)c1ccc(NS(=O)(=O)c2cccc(-c3cc(F)ccc3O)c2)cc1O [KAN0438241, 4-{[(5′-Fluoro-2′-hydroxybiphenyl-3-yl)sulfonyl]amino}-2-hydroxybenzoic acid]
potency for PFKFB3 by isothermal titration calorimetry (in words) [1]: sub-µM potency | remaining binding at 2 µM [2]: 100% | remaining binding at 2 µM [3]: 97% | remaining binding at 2 µM [4]: 92% | remaining binding at 2 µM [5]: 88% | remaining binding at 2 µM [6]: 100% | remaining binding at 2 µM [7]: 97% | remaining binding at 2 µM [8]: 100% | remaining binding at 2 µM [9]: 96% | remaining binding at 2 µM [10]: 97% | remaining binding at 2 µM [11]: 90% | remaining binding at 2 µM [12]: 100% | remaining binding at 2 µM [13]: 86% | remaining binding at 2 µM [14]: 92% | remaining binding at 2 µM [15]: 96% | remaining binding at 2 µM [16]: 95%

O=C(OCCO)c1ccc(NS(=O)(=O)c2cccc(-c3cc(F)ccc3O)c2)cc1O [KAN0438757, 2-Hydroxyethyl-4-{[(5′-fluoro-2′-hydroxybiphenyl-3-yl)sulfonyl]amino}-2-hydroxybenzoate]
intracellular target engagement of PFKFB3 (CETSA) [17]: demonstrated intracellular target engagement | IR-induced recruitment of RPA32 and RAD51 into repair foci (in words) [18]: disrupted | clonogenic survival in combination with IR (in words) [19]: dose-dependent radiosensitization | accumulation of cells in G2/M phase upon IR (in words) [20]: increased accumulation of cells in the G2/M phase

From article PMC6155239, “Targeting PFKFB3 radiosensitizes cancer cells and suppresses homologous recombination” (Nature Communications, 2018)
